# Reference: patent US11925654B2, “Esters of 2-deoxy-monosaccharides with anti proliferative activity” (Board of Regents, The University of Texas System, priority 2013, dated 2024)
# Legend:
# U87 = assay: MTS cytotoxicity assay, 72 hours drug exposure, U87 brain tumor cells; assay type: cell-based; settings: Homo sapiens, U-87 MG, final DMSO 0.5%
# Procedure: (§1) In the first set of assays, IC50 values were determined for each compound after 72 hours of drug exposure in each of the tumor cell lines. Cell lines tested include D54, U87, Panc-1, AsPc-1, Colo357-FG, L3.6, H226, H352, H441 cell lines.
# U87 is a human primary glioblastoma cell line formally known as U-87 MG. It has epithelial morphology, and was obtained from a patient with stage four cancer. U-87 MG can be obtained from the American Type Culture Collection (ATCC) where it is known by the accession number HTB-14. The entire sequence of the genome of U-87 MG has recently been published in PLoS Genetics, 2010 January; 6(1): e1000832. This is a hypodiploid human cell line with the modal chromosome number of 44 occurring in 48% of cells. The rate of higher ploidy was 5.9%. Twelve markers were common to all cells, including der(1)t(1;3) (p22;q21), der(16)t(1;16) (p22;p12), del(9) (p13) and nine others. The marker der(1) had two copies in most cells. There was only one copy of normal X. N1, N6 and N9 were not found.
# (§2) All cell lines were maintained in respective growth media at 37° C., 5% CO2 and 98% humidity. Cells were treated with the compounds and all drug concentrations were diluted so that the final concentration of DMSO is 0.5%. The cytotoxic effect was measured by the MTS Assay (Tetrazolium), which is a colorimetric method for determining the number of viable cells. After the 72 hours of incubation with drug, Promega's MTS reagent were added to the cells according to manufacturer's instructions and incubated for 2 hours. The plates were read at 490 nm and the resulting data graphed with GraphPad Prism 5 software.
# (§3) IC50 was calculated, which is approximate equivalent of IG50 (concentration at which 50% growth inhibition is measured). The IC50 values represent […] of the drug concentration.
# Colo357-FG = assay: MTS cytotoxicity assay, 72 hours drug exposure, Colo357-FG pancreatic cancer cells; assay type: cell-based; settings: Homo sapiens, COLO 357/FG, final DMSO 0.5%
# Procedure: as §1
# COLO 357 FG is continuous human cell line, COLO 357, with exceptional characteristics was derived from a metastasis of a pancreatic adenocarcinoma. COLO 357 grew as an adhering monolayer with a cell doubling time of 21 h and grew with 10% clonal efficiency in soft agar. COLO 357 cells had numerous lamellar inclusions. The cells elaborated the pancreatic enzymes trypsin, elastase and chymotrypsin. COLO 357 also secreted appreciable amounts of carcinoembryonic antigen and human chorionic gonadotropin. […] Nine nucleolar organizing regions were found by silver-stained metaphase preparations. COLO 357 has been “fingerprinted” for seven allelic isozymes.
# as §2, §3
SMILES,IC50 (U87) [µM],IC50 (Colo357-FG) [µM]
"CCC(CC)C(=O)OC1CC(OC(=O)C(CC)CC)C(O)C(CO)O1 [WP1261, 1,3-Di-O-(2-Ethyl)Butyryl-2-Deoxy-β-D-Glucopyranose]",741,340
CCC(CC)C(=O)OCC1OC(O)CC(OC(=O)C(CC)CC)C1O (centres unmarked) [WP1234],55,100
CCCC(=O)OCC1OC(O)CC(OC(=O)CCC)C1O (centres unmarked) [WP1213],240,380
CCCCC(=O)OCC1OC(O)CC(OC(=O)CCCC)C1O (centres unmarked) [WP1232],250,490
"CCC(CC)C(=O)OCC1OC(O)CC(O)C1O [WP1319, 6-O-(2-Ethyl)Butyric-2-Deoxy-D-Glucopyranose]",3000,1700
"CCCC(CCC)C(=O)O[C@H]1C[C@@H](O)[C@H](O)[C@@H](CO)O1 [WP1490, 1-O-Valproyl-2-Deoxy-β-D-Glucopyranose]",2400,2000
O=C(OCC1OC(O)CC(OC(=O)C2CCCC2)C1O)C1CCCC1 (centres unmarked) [WP1343],109,750
"CCCC(CCC)C(=O)O[C@H]1[C@H](O)CC(O)O[C@@H]1CO (stereo partly drawn) [WP1513, 4-O-Valproyl-2-Deoxy-D-Glucopyranose]",1200,1200
"CCCC(CCC)C(=O)O[C@@H]1CC(O)O[C@H](CO)[C@H]1O (stereo partly drawn) [WP1512, 3-O-Valproyl-2-Deoxy-D-Glucopyranose]",740,–
CCC(=O)OCC1OC(O)CC(OC(=O)CC)C1O (centres unmarked) [WP1231],380,550
"CCCCC(=O)OC[C@H]1OC(O)C[C@@H](O)[C@@H]1OC(=O)CCCC (stereo partly drawn) [WP1233, 4,6-Di-O-Valeroyl-2-Deoxy-D-Glucopyranose]",200,230
CC(C)CC(=O)OCC1OC(O)CC(OC(=O)CC(C)C)C1O (centres unmarked) [WP1263],37,160
CCC(CC)C(=O)OCC1OCC(O)C(OC(=O)C(CC)CC)C1O (centres unmarked) [WP1357],–,540
"CCCC(CCC)C(=O)OC[C@H]1OC(O)C[C@@H](O)[C@@H]1O (stereo partly drawn) [WP1491, 6-O-Valproyl-2-Deoxy-D-Glucopyranose]",2100,–
"CCCC(=O)OC[C@H]1OC(O)C[C@@H](O)[C@@H]1OC(=O)CCC (stereo partly drawn) [WP1214, 4,6-Di-O-Butyryl-2-Deoxy-D-Glucopyranose]",300,440
"CCC(CC)C(=O)OC1CC(O)OC(CO)C1O [WP1342, 3-O-(2-Ethyl)Butyryl-2-Deoxy-D-Glucopyranose]",2400,13200
CCC(CC)C(=O)OCC1OCCC(OC(=O)C(CC)CC)C1O (centres unmarked) [WP1317],2100,2100
"CCC(CC)C(=O)OC1CC(O)C(O)C(CO)O1 [WP1474, 1-O-(2-Ethyl)Butyryl-2-Deoxy-β-D-Glucopyranose]",2400,–
"CCC(CC)C(=O)OCC1OC(O)CC(O)C1OC(=O)C(CC)CC [WP1241, 4,6-Di-O-(2-Ethyl)Butyryl-2-Deoxy-α-D-Glucopyranose]",123,280
CCC(=O)OCC1OC(O)CC(O)C1OC(=O)CC (centres unmarked) [WP1242],490,6380
CCC(=O)OC1CC(O)C(O)C(CO)O1 (centres unmarked) [WP1216],3580,–
"CCCC(=O)OC[C@H]1OC(OC(=O)CCC)C[C@@H](O)[C@@H]1O (stereo partly drawn) [WP1217, 1,6-Di-O-Butyryl-2-Deoxy-D-Glucopyranose]",2330,–
